Columns and labels:
[1] = test system: C57BL/6 wild-type mice; experiment: Hemoglobin and leukocyte counts in cardiotoxicity study (FIG. 16d); assay type: in vivo; details: 9 mg/kg DOX equivalent i.v. once weekly for 4 weeks
Text: C57BL6/J mice received an equivalent weekly cumulative dose of free doxorubicin, commercially available liposomal formulation of doxorubicin (Doxil), NanoDox, NanoDoxCurc, or vehicle only for 4 weeks. One week after the last dose, various cardiac parameters were examined by echocardiogram followed by collection of blood by cardiac puncture. […] (d) Hemoglobin and leukocyte counts from blood samples from each treatment arm.
Blood samples were collected from experimental animals by cardiac puncture and hearts were collected for histological and molecular studies.

[2] = test system: C57BL/6 wild-type mice; experiment: Glutathione and glutathione peroxidase (GPx) in mouse heart lysates; assay type: in vivo
Method: To evaluate the degree of oxidative stress in treated mice, levels of the antioxidants glutathione and glutathione peroxidase (GPx) were evaluated by western blot and ELISA, respectively, in mouse heart lysates.

[3] = cited from earlier work
[4] = test system: BxPC3; experiment: In vitro cell viability (MTT) assay with gemcitabine, BxPC3 (FIG. 9); assay type: cell-based, human; details: BxPC3, 96 hours
Method: FIG. 9 illustrates in vitro cell viability (MTT assay) performed using the water-soluble drug gemcitabine conjugated to the acrylic acid (AA) surface reactive functional group of polymeric nanoparticle. Unlike the poorly water drugs that are encapsulated within the nanoparticle, water soluble drugs like gemcitabine can be conjugated to the nanoparticle surface, rendering this compound amenable to oral delivery. Human pancreatic cancer cell line BxPC3 is incubated with increasing dosages of either free gemcitabine (black bar), nano-gemcitabine (white bar), void polymer (grey bar), or PBS solvent (patterned bar). UT=untreated. […] All assays were performed in triplicate and means and standard deviations are plotted.
Gemcitabine is a water soluble compound, and thus differs from the poorly water soluble drugs discussed above that are encapsulated within the hydrophobic core of the polymeric nanoparticles. Herein, we describe the chemical conjugation of gemcitabine, as one illustrative example of water soluble drugs, to the hydrophilic surface of the polymeric nanoparticles. Such conjugation is expected to render gemcitabine amenable to oral delivery, utilizing the oral bioavailability properties of the said polymeric nanoparticles used as a carrier. 10 mg of NMA622 polymeric nanoparticles were dispersed in 10 ml of water by vortexing. […]

[5] = Solubilization of poorly water soluble drugs in water (FIG. 2); assay type: physicochemical; details: visual
[6] = Blood levels of rapamycin 2 hours after oral delivery (FIG. 10); assay type: in vivo, C57/B6 mice; details: 15 mg/kg rapamycin equivalent, 2 hours post delivery, HPLC
Text: FIG. 10 illustrates blood levels of rapamycin following oral delivery of polymeric nanoparticles. Rapamycin was encapsulated in nanoparticles comprised of increasing order of acrylic acid (AA) percentage in the co-polymeric composition. The nanoparticles were either administered as is, or after surface PEGylation. Compared are: Control A (rapamycin suspended in water); rapamycin nanoparticle comprised of NIPAAM:VP:AA in a ratio of 60:30:10 (designated as NVA631); rapamycin nanoparticle comprised of NIPAAM:VP:AA in a ratio of 60:20:20 (designated as NVA622); rapamycin nanoparticle comprised of NIPAAM:VP:AA in a ratio of 60:10:30 (designated as NVA613); and rapamycin nanoparticle comprised of NIPAAM:MMA:AA in a ratio of 60:20:20 (designated as NMA622). The corresponding PEGylated nanoparticles (PEG-NVA-631, PEG-NVA-622, PEG-NVA-613, and PEG-NMA-622) encapsulating rapamycin are designated as shaded bars. […] Blood levels are measured by HPLC from samples obtained at 2 hours post oral delivery.
Rapamycin is a poorly water soluble drug that has low oral bioavailability. […] At 2 hours post oral administration, the mice were bled and rapamycin concentrations in the blood were determined by high performance liquid chromatography (HPLC). […]

What does the source list for `COc1cccc2c1C(=O)c1c(O)c3c(c(O)c1C2=O)C[C@@](O)(C(=O)CO)C[C@@H]3O[C@H]1C[C@H](N)[C@H](O)[C@H](C)O1` [DOX, doxorubicin]?
Hemoglobin and leukocyte counts [1]: reduced; Hemoglobin (Hb) level, average ([1]; control 12.5 g/dL): 7.5 g/dL; glutathione level (western blot) [2]: marked decrease; glutathione peroxidase (GPx) level (ELISA) [2]: marked decrease; patients developing congestive heart failure (CHF) ([3]; cumulative dose of 550 mg/m2): 26%; frequency of CHF in pediatric acute lymphoblastic leukemia (ALL) patients ([3]; pediatric ALL patients): ≤ 57%

Which “activity in cell viability assay” value [4] does the source give for `Nc1ccn([C@@H]2O[C@H](CO)[C@@H](O)C2(F)F)c(=O)n1` [free gemcitabine, gemcitabine] here?
Its value is “comparable activity”.

With `CC(=O)O[C@H]1C(=O)[C@@]2(C)[C@H]([C@H](OC(=O)c3ccccc3)[C@]3(O)C[C@H](OC(=O)[C@H](O)[C@@H](NC(=O)c4ccccc4)c4ccccc4)C(C)=C1C3(C)C)[C@]1(OC(C)=O)CO[C@@H]1C[C@@H]2O` [free paclitaxel, paclitaxel] as the compound, how does the “solubility in water (turbidity / transparency of solution)” value [5] read?
The value was “essentially insoluble in water”.

With `CO[C@H]1C[C@@H]2CC[C@@H](C)[C@@](O)(O2)C(=O)C(=O)N2CCCC[C@H]2C(=O)O[C@H]([C@H](C)C[C@@H]2CC[C@@H](O)[C@H](OC)C2)CC(=O)[C@H](C)/C=C(\C)[C@@H](O)[C@@H](OC)C(=O)[C@H](C)C[C@H](C)/C=C/C=C/C=C/1C` [free rapamycin, rapamycin] as the compound, how does the “solubility in water (turbidity / transparency of solution)” value [5] read?
Its value is “essentially insoluble in water”.

And the “blood levels of rapamycin” value [6]?
Its value is “essentially undetectable”.

With `CO[C@H]1/C=C/O[C@@]2(C)Oc3c(C)c(O)c4c(O)c(c(/C=N/N5CCN(C)CC5)c(O)c4c3C2=O)NC(=O)/C(C)=C\C=C\[C@H](C)[C@H](O)[C@@H](C)[C@@H](O)[C@@H](C)[C@H](OC(C)=O)[C@@H]1C` [free rifampicin, rifampicin] as the compound, how does the “solubility in water (turbidity / transparency of solution)” value [5] read?
The value was “essentially insoluble in water”.

Source: US20130330412A1, “SMART POLYMERIC NANOPARTICLES WHICH OVERCOME MULTIDRUG RESISTANCE TO CANCER THERAPEUTICS AND TREATMENT-RELATED SYSTEMIC TOXICITY” (THE JOHNS HOPKINS UNIVERSITY, priority 2010, published 2013)
